{"source": "patent US20040242591A1", "about": "“Oxazolidinone derivatives as pontential antimicrobials” (priority 2001, published 2004)", "key": {"VRE 6A": {"tested_on": "VRE 6A", "assay": "MIC by agar incorporation method, VRE 6A", "assay_type": "cell-based, Enterococcus faecium", "set-up": "unit not given here", "details": "Mueller Hinton agar, 10^4 CFU/spot, 18 hours", "excerpt": "4) Ent. faecium […]—Enterococcus faecium 6A Van®, Cipro®"}, "Strep. pne. ATCC 6303": {"tested_on": "Strep. pne. ATCC 6303", "assay": "MIC by agar incorporation method, S. pneum 6303", "assay_type": "cell-based, Streptococcus pneumoniae", "details": "Mueller Hinton agar, 10^4 CFU/spot, 18 hours", "excerpt": "5) Strep. pne. ATCC 6303—Streptococcus pneumoniae ATCC 6303"}, "Ent. faecalis ATCC 29212": {"tested_on": "Ent. faecalis ATCC 29212", "assay": "MIC by agar incorporation method, E.faecalis 29212", "assay_type": "cell-based, Enterococcus faecalis", "set-up": "unit not given here", "details": "Mueller Hinton agar, 10^4 CFU/spot, 18 hours", "excerpt": "3) Ent. faecalis ATCC 29212—Enterococcus faecalis ATCC 29212"}, "MRSA 15187": {"tested_on": "MRSA 15187", "assay": "MIC by agar incorporation method, MRSA 15187", "assay_type": "cell-based, Methicillin Resistant Staphylococcus aureus", "set-up": "unit not given here", "details": "Mueller Hinton agar, 10^4 CFU/spot, 24 hours", "excerpt": "2) MRSA 15187—Methicillin Resistant Staphylococcus aureus"}, "MRSA 562": {"tested_on": "MRSA 562", "assay": "MIC by agar incorporation method, MRSA 562", "assay_type": "cell-based, Methicillin Resistant Staphylococcus aureus", "set-up": "unit not given here", "details": "Mueller Hinton agar, 10^4 CFU/spot, 24 hours"}, "S.aureus ATCC 25923": {"tested_on": "S.aureus ATCC 25923", "assay": "MIC by agar incorporation method, S.aureus 25923", "assay_type": "cell-based, Staphylococus aureus", "set-up": "unit not given here", "details": "Mueller Hinton agar, 10^4 CFU/spot, 18 hours"}, "MRSA 33": {"tested_on": "MRSA 33", "assay": "MIC by agar incorporation method, MRSA 33", "assay_type": "cell-based, Methicillin Resistant Staphylococcus aureus", "set-up": "unit not given here", "details": "Mueller Hinton agar, 10^4 CFU/spot, 24 hours"}, "Strep.pyog. ATCC 19615": {"tested_on": "Strep.pyog. ATCC 19615", "assay": "MIC by agar incorporation method, S.pyogenes 19615", "assay_type": "cell-based, Streptococcus pyogenes", "set-up": "unit not given here", "details": "Mueller Hinton agar, 10^4 CFU/spot, 18 hours", "excerpt": "6) Strep.pyog. ATCC 19615—Streptococcus pyogenes"}, "S. pneum AB 34": {"tested_on": "S. pneum AB 34", "assay": "MIC by agar incorporation method, S. pneum AB 34", "assay_type": "cell-based, Streptococcus pneumoniae", "set-up": "unit not given here", "details": "Mueller Hinton agar, 10^4 CFU/spot, 18 hours"}}}
{"smiles": "CC(=O)NC[C@H]1CN(c2ccc(N3CCCN(Cc4ccc([N+](=O)[O-])o4)CC3)c(F)c2)C(=O)O1", "note": "[Compound No. 52, (S)-N-[[3-[3-Fluoro-4-[N-1-[4-{2-furyl(5-nitro)methyl}]homopiperazinyl]phenyl]-2-oxo-5-oxazolidinyl]methyl]acetamide]", "values": [{"measurement": "In Vitro (MIC) VRE 6A", "setting": "VRE 6A", "value": 2}, {"measurement": "In Vitro (MIC) S. pneum 6303", "setting": "Strep. pne. ATCC 6303", "value": 1, "unit": "µg/mL"}, {"measurement": "In Vitro (MIC) E.faecalis 29212", "setting": "Ent. faecalis ATCC 29212", "value": 2}, {"measurement": "In Vitro (MIC) MRSA 15187", "setting": "MRSA 15187", "value": 2}, {"measurement": "In Vitro (MIC) MRSA 562", "setting": "MRSA 562", "value": 1}, {"measurement": "In Vitro (MIC) S.aureus 25923", "setting": "S.aureus ATCC 25923", "value": 2}, {"measurement": "In Vitro (MIC) MRSA 33", "setting": "MRSA 33", "value": 2}, {"measurement": "In Vitro (MIC) S.pyogenes 19615", "setting": "Strep.pyog. ATCC 19615", "value": 1}, {"measurement": "In Vitro (MIC) S. pneum AB 34", "setting": "S. pneum AB 34", "value": 4}]}
{"smiles": "CC(=O)NC[C@H]1CN(c2ccc(N3CCN(C(=O)c4ccc(-c5ccc(Cl)cc5[N+](=O)[O-])o4)CC3)c(F)c2)C(=O)O1", "note": "[Compound No. 35]", "values": [{"measurement": "In Vitro (MIC) VRE 6A", "setting": "VRE 6A", "value": 1}, {"measurement": "In Vitro (MIC) S. pneum 6303", "setting": "Strep. pne. ATCC 6303", "value": 1, "unit": "µg/mL"}, {"measurement": "In Vitro (MIC) E.faecalis 29212", "setting": "Ent. faecalis ATCC 29212", "value": 0.5}, {"measurement": "In Vitro (MIC) MRSA 15187", "setting": "MRSA 15187", "value": 1}, {"measurement": "In Vitro (MIC) MRSA 562", "setting": "MRSA 562", "value": 1}, {"measurement": "In Vitro (MIC) S.aureus 25923", "setting": "S.aureus ATCC 25923", "value": 1}, {"measurement": "In Vitro (MIC) MRSA 33", "setting": "MRSA 33", "value": 1}, {"measurement": "In Vitro (MIC) S.pyogenes 19615", "setting": "Strep.pyog. ATCC 19615", "value": 1}, {"measurement": "In Vitro (MIC) S. pneum AB 34", "setting": "S. pneum AB 34", "value": 1}]}
{"smiles": "CC(=O)NC[C@H]1CN(c2ccc(N3CCN(CC(=O)c4cccs4)CC3)c(F)c2)C(=O)O1", "note": "[Compound No. 2, (S)-N-[[3-[3-Fluoro-4-[N-1-[4-(2-thiophenoyl-methyl}]piperazinyl]phenyl]-2-oxo-5-oxazolidinyl]methyl]acetamide]", "values": [{"measurement": "In Vitro (MIC) VRE 6A", "setting": "VRE 6A", "value": 8}, {"measurement": "In Vitro (MIC) S. pneum 6303", "setting": "Strep. pne. ATCC 6303", "value": 2, "unit": "µg/mL"}, {"measurement": "In Vitro (MIC) E.faecalis 29212", "setting": "Ent. faecalis ATCC 29212", "value": 8}, {"measurement": "In Vitro (MIC) MRSA 15187", "setting": "MRSA 15187", "value": 8}, {"measurement": "In Vitro (MIC) MRSA 562", "setting": "MRSA 562", "value": 4}, {"measurement": "In Vitro (MIC) S.aureus 25923", "setting": "S.aureus ATCC 25923", "value": 8}, {"measurement": "In Vitro (MIC) MRSA 33", "setting": "MRSA 33", "value": 4}, {"measurement": "In Vitro (MIC) S.pyogenes 19615", "setting": "Strep.pyog. ATCC 19615", "value": 2}, {"measurement": "In Vitro (MIC) S. pneum AB 34", "setting": "S. pneum AB 34", "value": 8}]}
{"smiles": "CC(=O)NC[C@H]1CN(c2ccc(N3CCN(Cc4ccc([N+](=O)[O-])[nH]4)CC3)c(F)c2)C(=O)O1", "note": "[Compound No. 13, (S)-N-[[3-[3-Fluoro-4-[N-1-[4-{2-pyrrole-(5-nitro)methyl}]piperazinyl]phenyl]-2-oxo-5-oxazolidinyl]methyl]acetamide]", "values": [{"measurement": "In Vitro (MIC) VRE 6A", "setting": "VRE 6A", "value": 4}, {"measurement": "In Vitro (MIC) S. pneum 6303", "setting": "Strep. pne. ATCC 6303", "value": 4, "unit": "µg/mL"}, {"measurement": "In Vitro (MIC) E.faecalis 29212", "setting": "Ent. faecalis ATCC 29212", "value": 4}, {"measurement": "In Vitro (MIC) MRSA 15187", "setting": "MRSA 15187", "value": 2}, {"measurement": "In Vitro (MIC) MRSA 562", "setting": "MRSA 562", "value": 4}, {"measurement": "In Vitro (MIC) S.aureus 25923", "setting": "S.aureus ATCC 25923", "value": 4}, {"measurement": "In Vitro (MIC) MRSA 33", "setting": "MRSA 33", "value": 4}, {"measurement": "In Vitro (MIC) S.pyogenes 19615", "setting": "Strep.pyog. ATCC 19615", "value": 1}, {"measurement": "In Vitro (MIC) S. pneum AB 34", "setting": "S. pneum AB 34", "value": 4}]}
{"smiles": "CC(=O)NC[C@H]1CN(c2ccc(N3CCN(C(=O)c4cc([N+](=O)[O-])[nH]n4)CC3)c(F)c2)C(=O)O1", "note": "[Compound No. 31]", "values": [{"measurement": "In Vitro (MIC) VRE 6A", "setting": "VRE 6A", "value": 4}, {"measurement": "In Vitro (MIC) S. pneum 6303", "setting": "Strep. pne. ATCC 6303", "value": 1, "unit": "µg/mL"}, {"measurement": "In Vitro (MIC) E.faecalis 29212", "setting": "Ent. faecalis ATCC 29212", "value": 4}, {"measurement": "In Vitro (MIC) MRSA 15187", "setting": "MRSA 15187", "value": ">8"}, {"measurement": "In Vitro (MIC) MRSA 562", "setting": "MRSA 562", "value": ">8"}, {"measurement": "In Vitro (MIC) S.aureus 25923", "setting": "S.aureus ATCC 25923", "value": ">8"}, {"measurement": "In Vitro (MIC) MRSA 33", "setting": "MRSA 33", "value": ">8"}, {"measurement": "In Vitro (MIC) S.pyogenes 19615", "setting": "Strep.pyog. ATCC 19615", "value": 1}, {"measurement": "In Vitro (MIC) S. pneum AB 34", "setting": "S. pneum AB 34", "value": 1}]}
{"smiles": "CC(=O)NC[C@H]1CN(c2ccc(N3CCN(Cc4oc(C=O)cc4C)CC3)c(F)c2)C(=O)O1", "note": "[Compound No. 71]", "values": [{"measurement": "In Vitro (MIC) VRE 6A", "setting": "VRE 6A", "value": ">8"}, {"measurement": "In Vitro (MIC) S. pneum 6303", "setting": "Strep. pne. ATCC 6303", "value": ">8", "unit": "µg/mL"}, {"measurement": "In Vitro (MIC) E.faecalis 29212", "setting": "Ent. faecalis ATCC 29212", "value": ">8"}, {"measurement": "In Vitro (MIC) MRSA 15187", "setting": "MRSA 15187", "value": 2}, {"measurement": "In Vitro (MIC) MRSA 562", "setting": "MRSA 562", "value": 2}, {"measurement": "In Vitro (MIC) S.aureus 25923", "setting": "S.aureus ATCC 25923", "value": 4}, {"measurement": "In Vitro (MIC) MRSA 33", "setting": "MRSA 33", "value": 4}, {"measurement": "In Vitro (MIC) S.pyogenes 19615", "setting": "Strep.pyog. ATCC 19615", "value": ">8"}, {"measurement": "In Vitro (MIC) S. pneum AB 34", "setting": "S. pneum AB 34", "value": ">8"}]}
